Experimental data: patent US6583127B1, “Use of etherlysophospholipids as antiinflammatory agents” (Inkeysa. SA, priority 1998, dated 2003)

Legend:
[1] = tested on: PGE2 synthesis in human mucosal gastric biopsies; experiment: Ex vivo PGE2 synthesis in human mucosal gastric biopsies
Method: The ability of the gastric mucosa to generate prostaglandins estimates total cyclooxygenase (COX) activity (COX-1 plus any COX-2). To measure ex vivo prostaglandin E2 (PGE2) synthesis, normal gastric mucosal biopsies were immediately placed in Ependorff tubes containing phosphate-buffered saline (PBS). […] Each mucosal gastric biopsy was cut into different pieces (about 1 mg weight) that were subsequently weighed and incubated in the absence or in the presence of the distinct agents indicated in the corresponding Table for 20 min at 37° C. in 200 μl Hepes-glucose buffer. Then cells were mucosal gastric samples were pelleted by centrifugation, lysed and intracellular PGE2 was measured using an enzyme immunoassay kit (Amersham Pharmacia Biotech, Buckinghamshire, UK) following the manufacturer's instructions. Prostaglandin synthesis is expressed as picograms of PGE2 synthesised per mg of tissue incubation. Each experiment corresponded to the use of one biopsy, in order to avoid variability among different biopsies. Normal volunteers without a previous pharmacological treatment were selected for these assays. The normal gastroduodenal mucosa was visually assessed by endoscopy.
Human mucosal gastric biopsies were cut into about 1 mg pieces, incubated with the indicted agents (10 μM) for 20 min at 37° C. in Hepes-glucose buffer, and then the intracellular content of PGE2 was determined as described in the Methods section. Untreated control samples were run in parallel. Data are shown as mean Values+S.D. from three independent experiments.

CD11a = experiment: Cell surface expression of CD11a in human neutrophils (immunofluorescence flow cytometry); type: cell-based; conditions: Medium = 100
Text: (§1) Isolation and treatment of neutrophils.
(§2) Monoclonal antibodies. […] The antibodies are commercially available.
(§3) Immunofluorescence flow cytometry. […] Results were expressed as relative MFI (rMFI), such that
(§4) rMFI=(MFIagent×100)/MFImedium
(§5) Background fluorescence was substracted from all values.

[2] = tested on: Mouse bone marrow derived macrophages; experiment: Superoxide anion generation in macrophages (lucigenin chemoluminescent assay); type: cell-based; conditions: 1 or 3 μg/ml, 24 h; Zymosan-initiated; versus untreated controls (FIG. 2)
Method: Mouse bone marrow derived macrophages were incubated for 24 h at 37° C. in MEM+10% FCS to a concentration of 10^6 cells/ml in the absence or presence of ELPs IES01 and IEC01 at the concentration of 1 or 3 μg/ml. The O2^− free radicals were measured in a chemoluminescent assay that detects the photons generated by the reaction of superoxid anions with lucigenin. The liberated photons are counted with a luminometer Microlumat LB96P, Berthold, Wildbad, Germany. Collected macrophages are resuspended in 0.2 ml at a concentration of 10^6/ml in HEPES buffered medium containing 540 μg/ml lucigenin. Superoxid production is initiated by adding 50 mg of Zymosan and the emission of photons is measured with a luminometer for 2 h.

neutrophils = experiment: Toxicity for neutrophils; type: cell-based, human
Text: as §1

[3] = tested on: PGE2 production in murine fibroblasts 3T3; experiment: PGE2 measurement in 3T3 cells (enzyme immunoassay); type: cell-based, Mouse
Method: Cell culture. Human promyelocytic HL-60 cells and promonocytic U937 cells were grown in RPMI-1640 culture medium supplemented with 10% (v/v) heat-inactivated fetal calf serum, 2 mM L-glutamine, 100 units/ml penicillin and 24 μg/ml gentamicin. Mouse 3T3 fibroblasts were grown in Dulbecco's modified Eagle's medium (DMEM) supplemented with 10% (v/v) heat-inactivated fetal calf serum, 2 mM L-glutamine, 100 units/ml penicillin and 24 μg/ml gentamicin. Cells were incubated at 37° C. in a humidified atmosphere at 5% CO2 and 95% air.
Prostaglandin E2 (PGE2) measurement. 3T3 cells (1.5×10^5 in 100 μl in complete DMEM culture medium) were incubated overnight at 37° C. (5% CO2) in 96-well microtitre plates (tissue-culture grade). Then, the distinct agents were added in 100 μl complete DMEM culture medium for 20 min at 37° C. After washing thoroughly the cells with PBS, cells were lysed and intracellular PGE2 was measured using an enzyme immunoassay kit (Amersham Pharmacia Biotech, Buckinghamshire, UK) following the manufacturer's instructions. Data obtained in duplicate measurements were converted into actual amounts of PGE2 using a calibration curve run in parallel with defined amounts of PGE2.

CD43 = experiment: Cell surface expression of CD43 in human neutrophils (immunofluorescence flow cytometry); type: cell-based; conditions: Medium = 100
Text: as §1, §2, §3, §4, §5

How did the “pg PGE2/mg (weight)” value ([1]; human mucosal gastric biopsies, agents 10 μM, 20 min at 37° C., Control 115 ± 26, mean ± S.D., three experiments) turn out when `CCCCCCCCCCCCCCCCCCOCC(COP(=O)([O-])OCC[N+](C)(C)C)OC` (stereo not shown) [IEC01, Edelfosine] was run?
Its value is 131 ± 29 pg PGE2/mg.

What about the “effect on mucosal PGE2 synthesis (in words)” value ([1]; normal mucosal gastric biopsies, ex vivo) of the same molecule?
The value was “did not inhibit”.

And the “CD11a cell surface expression (rMFI)” value (CD11a; 10 ng/ml)?
The value was 99 ± 3.

What about the “CD11a cell surface expression (rMFI)” value (CD11a; 100 ng/ml) of the same molecule?
Its value is 102 ± 5.

What about the “CD11a cell surface expression (rMFI)” value (CD11a; 500 ng/ml) of the same molecule?
Its value is 97 ± 8.

What about the “CD11a cell surface expression (rMFI)” value (CD11a; 1 μg/ml) of the same molecule?
The value was 101 ± 6.

What about the “CD11a cell surface expression (rMFI)” value (CD11a; 5 μg/ml) of the same molecule?
The value was 96 ± 5.

And the “amount of O2− free radicals produced by macrophages (inhibition, in words)” value [2]?
The value was “higher”.

What about the “concentrations toxic for neutrophils” value (neutrophils) of the same molecule?
Its value is “higher than 50 μg/ml”.

And the “pg PGE2 (intracellular)” value ([3]; 3T3 cells, 10 μM, 20 min at 37° C., Control 112 ± 21)?
Its value is 148 ± 22 pg.

What about the “effect on PGE2 production (in words)” value ([3]; 3T3 fibroblasts, ionomycin-induced PGE2) of the same molecule?
Its value is “no significant inhibition”.

And the “CD43 cell surface expression (rMFI)” value (CD43; 10 ng/ml)?
Its value is 87.5 ± 2.5.

What about the “CD43 cell surface expression (rMFI)” value (CD43; 100 ng/ml) of the same molecule?
Its value is 63 ± 8.

What about the “CD43 cell surface expression (rMFI)” value (CD43; 500 ng/ml) of the same molecule?
Its value is 53 ± 5.

What about the “CD43 cell surface expression (rMFI)” value (CD43; 1 μg/ml) of the same molecule?
The value was 33 ± 8.

And the “CD43 cell surface expression (rMFI)” value (CD43; 5 μg/ml)?
Its value is 28 ± 7.
